Results: patent publication US9145398B2, “Methods of treating CXCR4-expressing cancers” (University of Louisville Research Foundation, Inc., priority 2010, dated 2015)
pIC50: −log10 of the molar value. “Also recorded” adds a separate entry of the source.

Key:
TC-1 tumor cells = type: in vivo; settings: 5 mg/kg i.p. every day for 21 days; versus PBS or Vehicle controls
Text: Development of Animal Model for CXCR4 Dependent Cancer Metastasis in Lungs: To establish a CXCR4 dependent lung tumor metastasis model, we first screened several cancer cell lines that are known to metastasize to lungs in mice models to determine which cancer cell lines endogenously express CXCR4 receptor. The mice cell lines screened were Lewis lung carcinoma, B16F10 melanoma, and TC-1 cervical carcinoma. Mice cell lines were screened using flow cytometry-based surface receptor staining using a fluorochrome labeled antibody to mouse CXCR4 receptor. […] The TC-1 cell line was generated by transfection of murine lung squamous epithelial cells by Human pappillomavirus (HPV) oncogenes E6, E7, and activated Ras.
5 mg/kg body weight of AMD3100, I-28, I-36, or I-38 were also injected at the same dose intra-peritoneal (i.p.) every day for 21 days starting from the day before the tumor cell injection. Mice were sacrificed and lungs were perfused and collected on day 21 post tumor challenge. Lungs were stored in formalin for 16 hrs and then transferred into 70% ethanol until the lung lobes became lucid. All five lung lobes were separated. Tumors were counted using a magnifying glass or a microscope. Tumor sizes were measured using a digital caliper. The total number of tumors counted in all five lung lobes of an individual mouse is reported as the tumor incidence. Mean tumor sizes were added together to calculate cumulative tumor size, which is reported as the tumor burden for each mouse.

hCXCR4-GFP [1] = biological target: T1, hCXCR4-GFP (Homo sapiens, UniProt P61073); experiment: Chemotaxis assay, hCXCR4-GFP expressing 300.19 cells, CXCL12; type: cell-based
T1 sequence (P61073 whole entry): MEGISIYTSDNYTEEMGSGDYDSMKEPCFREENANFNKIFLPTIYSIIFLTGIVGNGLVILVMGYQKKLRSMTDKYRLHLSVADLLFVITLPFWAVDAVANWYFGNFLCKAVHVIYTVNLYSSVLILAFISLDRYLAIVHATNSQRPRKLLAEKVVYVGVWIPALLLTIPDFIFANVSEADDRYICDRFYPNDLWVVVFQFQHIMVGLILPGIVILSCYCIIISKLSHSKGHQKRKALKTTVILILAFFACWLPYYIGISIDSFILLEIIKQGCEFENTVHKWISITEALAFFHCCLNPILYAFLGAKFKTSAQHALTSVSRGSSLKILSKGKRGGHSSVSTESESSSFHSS
Method: (§1) Cells were suspended in chemotaxis buffer (RPMI 1640, 1% fetal bovine serum, 1 mM HEPES) at a concentration of 1×10^7 cells per ml. Cell chemotaxis was determined by examining the migration of the 300.19 cells in response to administration of 50 μM test compound plus an optimized concentration of CXCL12 using a chemotaxis assay that was previously described in Basu et al. (Basu et al., Critical role for polar residues in coupling leukotriene B4 binding to signal transduction in BLT1, J. Biol. Chem. (2007) Vol. 282, pp. 10005-17). 100 μL of 300.19 cells from the above cell suspension were placed in the upper chamber of a Transwell support (Corning Costar, Cambridge, Mass.) and were separated by a 5 micron filter from a bottom chamber containing 50 μM test compound plus the optimized concentration of CXCL12 in a final bottom chamber volume of 600 μl. After 3 h of incubation at 37° C. in 5% CO2, the upper chamber was removed and cells in the lower chamber were counted in a Bürker chamber. Cell counts for all samples were normalized to a CXCL12 plus DMSO control and results are reported using this normalized measure, referred to herein as the chemotaxis index. In some instances, the IC50 concentration (i.e., the concentration at which the chemotaxis index is reduced to 50% of the chemotaxis index of the CXCL12 plus DMSO control) of the test compounds was determined. All assays were performed a minimum of four times; error bars represent the standard deviation of the mean.

hCXCR4-GFP [2] = biological target: T1, hCXCR4-GFP; experiment: Intracellular calcium mobilization assay, hCXCR4-GFP expressing 300.19 cells, CXCL12; type: cell-based; design: IC50 of intracellular calcium mobilization, CXCR4; other: CXCL12-mediated; other: 50 μM test compound; normalized Δ fluorescence (CXCR4, intracellular calcium mobilization); other: 50 μM test compound, 60 seconds pretreatm; settings: for normalized Δ fluorescence (CXCR4, intracellular calcium mobilization): 50 μM test compound, 60 seconds pretreatment, optimized CXCL12 (AMD3100 concentration not given); for pIC50: CXCL12-mediated, read-out: IC50 of intracellular calcium mobilization, CXCR4
Method: (§2) Intracellular Calcium Mobilization Assay Method: The intracellular calcium mobilization assay used 300.19 cells which stably expressed hCXCR4-GFP, as described previously in Pello et al. (2008). Cells were loaded with INDO-I and then pretreated with the 50 μM of the test compound for 60 seconds prior to stimulation of intracellular calcium mobilization with an optimized concentration of CXCL12. […] The value Δ florescence is the difference between (a) the fluorescence ratio from cells before exposure to CXCL12 at its optimized concentration and (b) the fluorescence ratio from cells following stimulation with the optimized concentration of CXCL12. Decreases in Δ florescence correspond to decreases in intracellular calcium mobilization, and therefore, decreased signaling. As CXCL12 concentration was optimized for each test compound, results are presented as normalized Δ florescence which is Δ fluorescence divided by the fluorescence ratio of optimized CXCL12-only stimulation. In some instances, the IC50 concentration (concentration at which intracellular calcium mobilization is reduced to 50% of the Δ fluorescence of the CXCL12 plus DMSO control) of the test compounds was determined. All assays were performed a minimum of four times; error bars represent the standard deviation of the mean.

BLT1 [3] = biological target: T2, BLT1 (Homo sapiens, UniProt Q15722); experiment: Intracellular calcium mobilization assay, cells expressing BLT1, LTB4; type: cell-based; settings: for pIC50: LTB4-mediated; for normalized Δ fluorescence (BLT1, intracellular calcium mobilization): 50 μM test compound, LTB4
T2 sequence (Q15722 whole entry, species assumed): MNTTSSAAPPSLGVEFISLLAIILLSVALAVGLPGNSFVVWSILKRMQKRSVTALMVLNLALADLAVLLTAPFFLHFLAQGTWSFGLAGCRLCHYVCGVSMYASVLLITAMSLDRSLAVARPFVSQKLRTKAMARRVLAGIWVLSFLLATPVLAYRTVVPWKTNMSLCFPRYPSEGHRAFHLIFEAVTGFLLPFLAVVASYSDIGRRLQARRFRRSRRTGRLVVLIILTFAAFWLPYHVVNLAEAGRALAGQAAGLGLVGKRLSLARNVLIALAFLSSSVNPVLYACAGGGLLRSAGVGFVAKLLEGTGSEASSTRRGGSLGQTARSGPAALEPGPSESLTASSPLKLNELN
Method: as §2
At 50 μM test compound concentrations in BLT1-expressing cells, I-44 (0.040) and I-46 (0.017) inhibited intracellular calcium mobilization.

300.19 cells = experiment: Cytotoxicity assay, propidium iodide based flow cytometry; type: cell-based; settings: for cytotoxicity, percentage of cells staining positive for PI: 50 μM test compound
Method: Cytotoxicity Assay Method: To determine the potential for test compound cytotoxicity to influence cell intracellular calcium mobilization and chemotaxis, cell cytotoxicity was assessed using propidium iodide (PI) based flow cytometry. Propidium iodine is impermeable to intact cell membranes and thus its lack of intercalation into DNA (which increases PI fluorescence) is a positive indicator of cell viability. Cytotoxicity values are presented as percentage of cells staining positive for PI. Lower values of fluorescence indicate less cytotoxicity. All assays were performed a minimum of four times; error bars represent the standard deviation of the mean.

hCXCR4-GFP [4] = experiment: Intracellular calcium mobilization assay, hCXCR4-GFP expressing 300.19 cells, CXCL12; type: cell-based, human; settings: for difference between CXCR4- and BLT1-mediated intracellular calcium mobilization: 50 μM test compound
Method: as §2

hCXCR4-GFP [5] = experiment: Chemotaxis assay, hCXCR4-GFP expressing 300.19 cells, CXCL12; type: cell-based, human; settings: 50 μM test compound
Method: as §1

BLT1 [6] = biological target: T2, BLT1; experiment: Chemotaxis assay, cells expressing BLT1, LTB4; type: cell-based; settings: 50 μM test compound, LTB4-induced
Method: as §1
To examine specificity of some of the compounds for CXCR4, their activity was tested against a non-family member class A G protein-coupled receptor, BLT1. […] I-38 and I-43 inhibited BLT1-mediated chemotaxis (0.23) and (0.045) to about the same extent as CXCR4-mediated chemotaxis (0.21) and (0.064), respectively.

| Structure (SMILES) | pIC50 (BLT1 [3]) | pIC50 (hCXCR4-GFP [2]) | cytotoxicity, percentage of cells staining positive for PI (300.19 cells) | difference between CXCR4- and BLT1-mediated chemotaxis (hCXCR4-GFP [5]) | further results |
| --- | --- | --- | --- | --- | --- |
| c1cc(CN2CCCNCCNCCCNCC2)ccc1CN1CCCNCCNCCCNCC1 [AMD3100, reference compound] |  |  |  |  | TC-1 metastatic tumor incidence and burden in lungs (TC-1 tumor cells): reduced mice TC-1 metastatic tumor incidence and burden in lungs; also recorded: metastasis of TC-1 was significantly inhibited; inhibition of chemotaxis (hCXCR4-GFP [1]; concentrations ranging from 50 nM to 100 nM, data not shown): completely inhibited; normalized Δ fluorescence (CXCR4, intracellular calcium mobilization) (hCXCR4-GFP [2]): 0.51 |
| C(=C\N1CCCC1)/c1nnnn1-c1ccc2ccccc2c1 [Compound I-2, 1-(2-naphthyl)-5-(2-pyrrolidin-1-ylvinyl)tetrazole] | 4.40 | 4.35 | 63.5% |  | cytotoxicity at 10 μM (300.19 cells): retained cytotoxicity; difference between CXCR4- and BLT1-mediated intracellular calcium mobilization (hCXCR4-GFP [4]): no significant difference |
| N=c1n(CCN2CCCCC2)c2ccccc2n1CC(O)COc1ccc(Cl)cc1 (centres unmarked) [Compound I-5, 1-(4-chlorophenoxy)-3-[2-imino-3-[2-(1-piperidyl)ethyl]benzoimidazol-1-yl]-propan-2-ol] |  |  |  | small differences |  |
| C=C(C)C1CC=C(CN(CCCN(C)C)CCCN(C)C)CC1 (centres unmarked) [Compound I-6, N-(3-dimethylaminopropyl)-N-[(4-isopropenyl-1-cyclohexenyl)methyl]-N′,N′-dimethyl-propane-1,3-diamine] |  |  |  | small differences |  |
| COc1ccc(NCc2nc3ccccc3n2CCOc2ccccc2C)cc1 [Compound I-7, N-((1-(2-(o-tolyloxy)ethyl)-1H-benzo[d]imidazol-2-yl)methyl)-4-methoxybenzenamine] |  |  | 53.4% |  | cytotoxicity at 10 μM (300.19 cells): retained cytotoxicity |
| CCOc1ccc(NCc2nc3ccccc3n2CCOc2ccccc2)cc1 [Compound I-8, 4-ethoxy-N-((1-(2-phenoxyethyl)-1H-benzo[d]imidazol-2-yl)methyl)benzenamine] |  |  |  | small differences |  |
| CCOC(=O)c1c(C)[nH]c(C(=O)COC(=O)c2c(-c3ccccc3)noc2C)c1C [Compound I-32, [2-(4-ethoxycarbonyl-3,5-dimethyl-1H-pyrrol-2-yl)-2-oxo-ethyl]5-methyl-3-phenyl-isoxazole-4-carboxylate] |  |  |  | small differences |  |
| COC(=O)c1ccc(NC(=O)c2ccc3nc(-c4ccccn4)c(-c4ccccn4)nc3c2)cc1 [Compound I-39, methyl 4-(2,3-di(pyridin-2-yl)quinoxaline-6-carboxamido)benzoate] |  |  |  |  | normalized Δ fluorescence (CXCR4, intracellular calcium mobilization) (hCXCR4-GFP [2]): 0.31 |
| O=C(/C=C/c1ccccc1)NC(=S)Nc1cccc(-c2nc3ncccc3o2)c1 [Compound I-40, 1-(3-(oxazolo[4,5-b]pyridin-2-yl)phenyl)-3-((E)-3-phenylacryloyl)thiourea] |  |  | 88.3% |  |  |
| CN1C/C(=C/c2cccnc2)C(=O)/C(=C/c2cccnc2)C1 [Compound I-43, (3E,5Z)-1-methyl-3,5-bis((pyridin-3-yl)methylene)piperidin-4-one] |  |  |  |  | chemotaxis index (CXCR4-mediated) (hCXCR4-GFP [1]; 50 μM test compound plus optimized CXCL12, normalized to CXCL12 plus DMSO control): 0.064; pIC50 (hCXCR4-GFP [1]; hCXCR4-GFP 300.19 cells, CXCL12): 4.70; chemotaxis index (BLT1-mediated) (BLT1 [6]): 0.045 |
| COc1ccc(-c2cc(-c3ccccc3)cc3sc(/C(N)=N\C#N)c(N)c23)cc1 [Compound I-44, (E)-3-amino-N′-cyano-4-(4-methoxyphenyl)-6-phenylbenzo[b]thiophene-2-carboxamidine] |  |  | 99.8% |  | normalized Δ fluorescence (BLT1, intracellular calcium mobilization) (BLT1 [3]): 0.040; normalized Δ fluorescence (CXCR4, intracellular calcium mobilization) (hCXCR4-GFP [2]): 0.29 |

Continued, in another order:

| pIC50 (BLT1 [3]) | pIC50 (hCXCR4-GFP [2]) | Structure (SMILES) | cytotoxicity, percentage of cells staining positive for PI (300.19 cells) | difference between CXCR4- and BLT1-mediated chemotaxis (hCXCR4-GFP [5]) | further results |
| --- | --- | --- | --- | --- | --- |
| 4.40 | 4.35 | CCc1ccc(OCCNc2cc(N3CCNC(C)C3)ccc2[N+](=O)[O-])cc1 (centres unmarked) [Compound I-4, N-[2-(4-ethylphenoxy)ethyl]-5-(3-methylpiperazin-1-yl)-2-nitro-aniline] | 98.8% | small differences | cytotoxicity at 5 μM (300.19 cells; 5 μM): maintained cytotoxicity; difference between CXCR4- and BLT1-mediated intracellular calcium mobilization (hCXCR4-GFP [4]): no significant difference |
| 5.60 | 5.30 | COc1ccccc1C(=O)OCCNc1nc2cc(C)cc(C)c2cc1C#N [Compound I-12, 2-[(3-cyano-5,7-dimethyl-2-quinolyl)amino]ethyl 2-methoxybenzoate] |  |  | difference between CXCR4- and BLT1-mediated intracellular calcium mobilization (hCXCR4-GFP [4]): no significant difference |
| 5.60 | 5.30 | CCC(=O)NCCNc1nc2cc(C)cc(C)c2cc1C#N [Compound I-13, N-[2-[(3-cyano-5,7-dimethyl-2-quinolyl)amino]ethyl]propanamide] |  |  | difference between CXCR4- and BLT1-mediated intracellular calcium mobilization (hCXCR4-GFP [4]): no significant difference |
| 4.52 | 4.30 | CCOc1ccc(NCC(O)Cn2c3ccccc3n3c(=O)cc(C)c(C#N)c23)cc1 (centres unmarked) [Compound I-15, 5-[3-[(4-ethoxyphenyl)amino]-2-hydroxypropyl]-1,5-dihydro-3-methyl-1-oxo-pyrido[1,2-a]benzimidazole-4-carbonitrile] |  |  | normalized Δ fluorescence (BLT1, intracellular calcium mobilization) (BLT1 [3]): 0.16; fold greater inhibition of CXCR4-mediated than BLT1-mediated intracellular calcium mobilization (hCXCR4-GFP [4]; from normalized Δ fluorescence): ~3 fold; normalized Δ fluorescence (CXCR4, intracellular calcium mobilization) (hCXCR4-GFP [2]): 0.45 |
| 4.52 | 4.46 | CCOc1ccc(NCC(O)Cn2c3ccccc3c3ccccc32)cc1 (centres unmarked) [Compound I-16, 1-carbazol-9-yl-3-(4-ethoxyphenyl)amino-propan-2-ol] | 67.9% | small differences | cytotoxicity at 10 μM (300.19 cells): retained cytotoxicity |
